Experimental data as given in the supplement of paper PMC11061612.

How the values were obtained:
Experiment in all cases: combination Emax (second highest fraction inhibited in the dose matrix, 72 h); higher = more inhibition; extreme values may be limits of the assay
[1] = system: 697 (B-Lymphoblastic Leukemia)
Summary of the method: (§1)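 After 24 hours at 37°C and 5% CO2 in 1536-well plates, cells in DMEM/F12 or RPMI plus 10% FBS received two-drug dose matrices for 72 hours. Viability came from CellTiter-Glo 2.0 luminescence and was scaled as inhibition, anchored at 0 by vehicle wells and at 1 by blank wells. Combination Emax is taken as the second-highest inhibition in the matrix, and Bliss excess as the observed combination effect less EA + EB − EA·EB, with EA and EB the single-agent effects.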

[2] = system: C3A (Hepatocellular Carcinoma)
Summary of the method: as §1

[3] = system: DOV13 (Ovarian Carcinoma)
Summary of the method: as §1

[4] = system: JiyoyeP-2003 (Burkitt's Lymphoma)
Summary of the method: as §1

[5] = system: KARPAS-1106P (B-Cell Non-Hodgkin's Lymphoma)
Summary of the method: as §1

[6] = system: KATOIII (Gastric Carcinoma)
Summary of the method: as §1

[7] = system: LS-513 (Colorectal Carcinoma)
Summary of the method: as §1

[8] = system: MDA-MB-157 (Breast Carcinoma)
Summary of the method: as §1

[9] = system: MFH-ino (Other Solid Carcinomas)
Summary of the method: as §1

[10] = system: NCI-H1299 (Non-Small Cell Lung Carcinoma)
Summary of the method: as §1

[11] = system: NCI-H1694 (Small Cell Lung Carcinoma)
Summary of the method: as §1

[12] = system: NCI-H1793 (Lung Adenocarcinoma)
Summary of the method: as §1

SK-N-FI (Neuroblastoma) = system: SK-N-FI (Neuroblastoma)
Summary of the method: as §1

SN12C (Kidney Carcinoma) = system: SN12C (Kidney Carcinoma)
Summary of the method: as §1

[13] = system: SW1088 (Low Grade Glioma)
Summary of the method: as §1

[14] = system: SW1783 (Low Grade Glioma)
Summary of the method: as §1

[15] = system: SW1990 (Pancreatic Carcinoma)
Summary of the method: as §1

[16] = system: SW756 (Cervical Carcinoma)
Summary of the method: as §1

[17] = system: SW780 (Bladder Carcinoma)
Summary of the method: as §1

[18] = system: TE-5 (Esophageal Squamous Cell Carcinoma)
Summary of the method: as §1

| SMILES | combination Emax [1] | combination Emax [2] | combination Emax [3] | combination Emax [4] | combination Emax [5] | combination Emax [6] | combination Emax [7] | combination Emax [8] | combination Emax [9] | combination Emax [10] | combination Emax [11] | combination Emax [12] | combination Emax (SK-N-FI (Neuroblastoma)) | combination Emax (SN12C (Kidney Carcinoma)) | combination Emax [13] | combination Emax [14] | combination Emax [15] | combination Emax [16] | combination Emax [17] | combination Emax [18] |
| --- | --- | --- | --- | --- | --- | --- | --- | --- | --- | --- | --- | --- | --- | --- | --- | --- | --- | --- | --- | --- |
| NC1(C(=O)N[C@@H](CCO)c2ccc(Cl)cc2)CCN(c2ncnc3[nH]ccc23)CC1 [Capivasertib] + CC(C)n1c(=O)n(C)c2cnc3cc(F)c(-c4ccc(OCCCN5CCCCC5)nc4)cc3c21 [AZD1390] (first compound max 10 µM, 7x7, partner max 0.3 µM) | 0.59 | 0.255 | 0.462 | 0.685 | 0.392 | 0.345 | 0.471 | 0.25 | 0.28 | 0.254 | 0.223 | 0.265 | 0.361 | 0.205 | 0.624 | 0.454 | 0.143 | 0.31 | 0.176 | 0.303 |
| NC1(C(=O)N[C@@H](CCO)c2ccc(Cl)cc2)CCN(c2ncnc3[nH]ccc23)CC1 [Capivasertib] + CCN(CCO)CCCOc1ccc2c(Nc3cc(CC(=O)Nc4cccc(F)c4)[nH]n3)ncnc2c1 [AZD2811] (first compound max 10 µM, 7x7, partner max 1 µM) | 1 | 0.307 | 0.544 | 0.777 | 0.502 | 0.295 | 0.532 | 0.276 | 0.318 | 0.364 | 0.508 | 0.289 | 0.396 | 0.27 | 0.642 | 0.469 | 0.136 | 0.287 | 0.28 | 0.339 |
| NC1(C(=O)N[C@@H](CCO)c2ccc(Cl)cc2)CCN(c2ncnc3[nH]ccc23)CC1 [Capivasertib] + COc1nnc2ccc(N3CCC(c4ccc(OCCN5CCN(C)C(=O)[C@H]5C)cc4)CC3)nn12 [AZD5153] (first compound max 10 µM, 7x7, partner max 1 µM) | 0.985 | 0.478 | 0.535 | 0.912 | 0.979 | 0.201 | 0.641 | 0.389 | 0.513 | 0.669 | 0.523 | 0.37 | 0.579 | 0.152 | 0.638 | 0.473 | 0.208 | 0.413 | 0.226 | 0.609 |
| NC1(C(=O)N[C@@H](CCO)c2ccc(Cl)cc2)CCN(c2ncnc3[nH]ccc23)CC1 [Capivasertib] + C[C@@H]1COCCN1C2=NC(=NC(=C2)C3(CC3)[S@](=N)(=O)C)C4=C5C=CNC5=NC=C4 [AZD6738] (first compound max 10 µM, 7x7, partner max 10 µM) | 1 | 0.551 | 0.925 | 0.93 | 0.694 | 0.438 | 0.794 | 0.884 | 0.602 | 0.602 | 0.682 | 0.543 | 0.705 | 0.261 | 0.707 | 0.679 | 0.498 | 0.428 | 0.284 | 0.721 |
| NC1(C(=O)N[C@@H](CCO)c2ccc(Cl)cc2)CCN(c2ncnc3[nH]ccc23)CC1 [Capivasertib] + Cn1cnc2c(F)c(Nc3ccc(Br)cc3Cl)c(C(=O)NOCCO)cc21 [Selumetinib] (first compound max 10 µM, 7x7, partner max 10 µM) | 0.617 | 0.603 | 0.371 | 0.775 | 0.586 | 0.431 | 0.867 | 0.292 | 0.556 | 0.615 | 0.204 | 0.39 | 0.614 | 0.352 | 0.618 | 0.415 | 0.368 | 0.448 | 0.421 | 0.56 |
| Cc1nc(Nc2ncc(C(=O)Nc3c(C)cccc3Cl)s2)cc(N2CCN(CCO)CC2)n1 [Dasatinib] + CC(=O)Nc1cccc(-n2c(=O)n(C3CC3)c(=O)c3c(Nc4ccc(I)cc4F)n(C)c(=O)c(C)c32)c1 [Trametinib] (first compound max 2 µM, 7x7, partner max 1 µM) | 0.708 | 0.577 | 0.814 | 0.715 | 0.741 | 0.629 | 0.998 | 0.234 | 0.513 | 0.795 | 0.111 | 0.567 | 0.757 | 0.455 | 0.666 | 0.43 | 0.399 | 0.691 | 0.625 | 0.322 |
| COc1cccc2c1C(=O)c1c(O)c3c(c(O)c1C2=O)C[C@@](O)(C(=O)CO)C[C@@H]3O[C@H]1C[C@H](N)[C@H](O)[C@H](C)O1 [Doxorubicin] + Cc1cc2ncnn2cc1Nc1ncc2c(n1)n(C1CCOCC1)c(=O)n2C [AZD7648] (first compound max 1 µM, 7x7, partner max 10 µM) | 1 | 0.485 | 0.914 | 0.981 | 0.988 | 0.319 | 0.617 | 0.805 | 0.608 | 0.66 | 0.921 | 0.378 | 0.373 | 0.642 | 0.477 | 0.481 | 0.303 | 0.514 | 0.235 | 0.678 |
